Laboratory results taken from the supplement of paper PMC6045584.
± gives the standard deviation of the averaged measurements.

Legend:
SAPACITABINE = compound: CCCCCCCCCCCCCCCC(=O)Nc1ccn([C@@H]2O[C@H](CO)[C@@H](O)[C@@H]2C#N)c(=O)n1 [SAPACITABINE]; experiment: surviving fraction relative to DMSO-only wells; higher = less growth inhibition; settings: exposure time: 5 days
Summary of the method: (§1)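 Inhibitors were tested at 0.5, 1, 5, 10, 50, 100, 500 and 1000 nM, applied continuously for five days beginning 24 hours after log-phase tumour cells were seeded at 250–500 per well in 384-well plates. CellTiter-Glo luminescence served as the viability measure, expressed as surviving fraction against the median of DMSO-only wells. Each line, screened three times, was kept only with replicate Pearson r >0.7 and median Z' >0.3.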

SNX-5422 = compound: CC1(C)CC(=O)c2c(C(F)(F)F)nn(-c3ccc(C(N)=O)c(N[C@H]4CC[C@H](OC(=O)CN)CC4)c3)c2C1 [SNX-5422]; experiment: as above; settings: exposure time: 5 days
Summary of the method: as §1

Test System	surviving fraction (SAPACITABINE; 0.5 nM)	surviving fraction (SAPACITABINE; 1 nM)	surviving fraction (SAPACITABINE; 5 nM)	surviving fraction (SAPACITABINE; 10 nM)	surviving fraction (SAPACITABINE; 50 nM)	surviving fraction (SAPACITABINE; 100 nM)	surviving fraction (SAPACITABINE; 500 nM)	surviving fraction (SAPACITABINE; 1000 nM)	surviving fraction (SNX-5422; 0.5 nM)	surviving fraction (SNX-5422; 1 nM)	surviving fraction (SNX-5422; 5 nM)	surviving fraction (SNX-5422; 10 nM)	surviving fraction (SNX-5422; 50 nM)	surviving fraction (SNX-5422; 100 nM)	surviving fraction (SNX-5422; 500 nM)	surviving fraction (SNX-5422; 1000 nM)
SG43 HEADNECK	1.04 ± 0.091	1.28 ± 0.23	1.08 ± 0.17	1.11 ± 0.29	0.867 ± 0.14	1.04 ± 0.072	0.933 ± 0.13	1.05 ± 0.04	0.971 ± 0.16	1.26 ± 0.33	0.911 ± 0.033	0.865 ± 0.13	0.205 ± 0.085	0.033 ± 0.004	0.0307 ± 0.019	0.037 ± 0.003
SIHA CERVIX	0.907 ± 0.068	0.863 ± 0.03	0.895 ± 0.044	0.91 ± 0.021	1.02 ± 0.026	0.972 ± 0.11	0.739 ± 0.046	0.641 ± 0.035	1.11 ± 0.1	1.1 ± 0.096	1.21 ± 0.055	1.23 ± 0.095	0.423 ± 0.034	0.262 ± 0.002	0.2 ± 0.0087	0.188 ± 0.0084
SJSA1 BONE	1.24 ± 0.072	1.18 ± 0.095	1.19 ± 0.25	1.21 ± 0.066	1.65 ± 0.058	1.74 ± 0.087	1.65 ± 0.1	1.75 ± 0.11	1.06 ± 0.041	1.02 ± 0.051	1.12 ± 0.088	1.14 ± 0.034	0.484 ± 0.03	0.177 ± 0.0095	0.0583 ± 0.0035	0.0523 ± 0.0015
SKBR3 BREAST	0.873 ± 0.076	0.696 ± 0.054	0.756 ± 0.012	0.828 ± 0.046	0.791 ± 0.15	0.572 ± 0.096	0.386 ± 0.084	0.391 ± 0.051	0.866 ± 0.051	0.932 ± 0.25	0.93 ± 0.068	0.841 ± 0.051	0.439 ± 0.024	0.432 ± 0.035	0.192 ± 0.01	0.181 ± 0.002
SUM44 BREAST	0.781 ± 0.19	0.773 ± 0.18	0.823 ± 0.14	0.827 ± 0.1	0.902 ± 0.12	0.686 ± 0.13	0.68 ± 0.093	0.611 ± 0.07	1.02 ± 0.035	0.987 ± 0.043	0.974 ± 0.013	0.867 ± 0.024	0.604 ± 0.015	0.589 ± 0.04	0.495 ± 0.041	0.471 ± 0.048
SUM159 BREAST	0.954 ± 0.016	0.942 ± 0.01	0.947 ± 0.028	0.9227 ± 0.0074	0.935 ± 0.018	0.851 ± 0.018	0.42 ± 0.0061	0.34 ± 0.021	1.11 ± 0.11	1.13 ± 0.098	1.16 ± 0.17	1.15 ± 0.17	0.6 ± 0.084	0.316 ± 0.015	0.064 ± 0.0036	0.0623 ± 0.0015
SYO1 SYNOVIAL	0.83 ± 0.07	0.689 ± 0.019	0.737 ± 0.016	0.343 ± 0.029	0.48 ± 0.022	0.269 ± 0.0028	0.0989 ± 0.0067	0.0679 ± 0.0022	1.03 ± 0.031	0.993 ± 0.089	1.02 ± 0.016	0.846 ± 0.059	0.122 ± 0.049	0.0776 ± 0.021	0.0327 ± 0.0032	0.0335 ± 0.0013
T47D BREAST	0.9004 ± 0.0044	0.871 ± 0.029	0.911 ± 0.078	0.825 ± 0.035	0.961 ± 0.06	0.918 ± 0.036	0.649 ± 0.0094	0.519 ± 0.039	1.08 ± 0.018	1.06 ± 0.018	1.08 ± 0.035	1.06 ± 0.019	0.492 ± 0.033	0.512 ± 0.016	0.31 ± 0.0074	0.288 ± 0.0079
U2OS BONE	0.921 ± 0.066	0.938 ± 0.06	0.946 ± 0.035	0.936 ± 0.067	0.939 ± 0.016	0.83 ± 0.036	0.729 ± 0.019	0.66 ± 0.032	1.04 ± 0.019	1.06 ± 0.04	1.08 ± 0.015	1.06 ± 0.041	0.644 ± 0.018	0.257 ± 0.021	0.066 ± 0.0035	0.0757 ± 0.0023
VCAP PROSTATE	0.892 ± 0.048	0.935 ± 0.07	0.959 ± 0.085	0.91 ± 0.055	1.06 ± 0.038	1.03 ± 0.1	0.95 ± 0.015	0.791 ± 0.1	1.13 ± 0.051	1.03 ± 0.057	1.08 ± 0.081	1.15 ± 0.086	0.279 ± 0.024	0.141 ± 0.0038	0.165 ± 0.0055	0.161 ± 0.013
VP229 BREAST	0.763 ± 0.17	0.668 ± 0.054	0.686 ± 0.11	0.643 ± 0.084	1 ± 0.14	0.835 ± 0.12	0.69 ± 0.099	0.669 ± 0.083	1.286 ± 0.012	1.15 ± 0.17	1.12 ± 0.08	1.03 ± 0.16	0.612 ± 0.034	0.628 ± 0.1	0.0873 ± 0.019	0.088 ± 0.011
YAMATO SYNOVIAL	0.776 ± 0.044	0.446 ± 0.029	0.684 ± 0.053	0.11 ± 0.0083	1.04 ± 0.062	0.511 ± 0.021	0.402 ± 0.01	0.0903 ± 0.0049	1.2 ± 0.21	1.15 ± 0.13	1.23 ± 0.096	1.17 ± 0.086	0.971 ± 0.21	0.339 ± 0.031	0.318 ± 0.028	0.382 ± 0.031
ZR751 BREAST	1.02 ± 0.049	1 ± 0.21	1.01 ± 0.14	0.888 ± 0.13	1.01 ± 0.073	0.788 ± 0.011	0.627 ± 0.06	0.472 ± 0.039	1.04 ± 0.12	1.45 ± 0.57	1.08 ± 0.11	1.34 ± 0.18	0.652 ± 0.071	0.513 ± 0.036	0.218 ± 0.024	0.217 ± 0.017
